# Reference: US20190292223A1, “SAP AND PEPTIDOMIMETICS FOR TREATMENT OF EYE DISEASE” (Arch Biosurgery, Inc., priority 2018, published 2019)
# Cy5.5 = Cy5.5 dye
# Legend:
# [1] = design: species or system Sprague-Dawley rats; conditions: rat, in vivo
# Protocol: The fate of SAP upon application to the eye was investigated. Specifically, the ability of SAP to reach the retina via application of eye drop solutions of the SAP to the cornea was evaluated using an SAP-Cy5 conjugate.
# Adult white Sprague-Dawley rats weighing between 200 and 240 grams were housed in a 12 hour light/12 hour night cycle with free access to food and water. The animals were randomly divided into experimental or control groups.
# Conjugates of Cy5.5 and RADA (SEQ ID NO: 57), Cy5.5 and RADARADA ((RADA)2; SEQ ID NO: 88), and Cy5.5 and H2N(RADA)4CONH2 (SEQ ID NO: 433) were prepared according to a modified protocol of Chen X., et al., Cancer Res., 64(21): 8009-8014 (2004).
# In one experiment, RADA-4-Cy5.5 conjugate was prepared as follows: 0.5 mg of H2N(RADA)4CONH2 was dissolved in 50 μL of DMSO to a final concentration of […] in DMSO. The solution was mixed with 20 μL of diethyl isopropyl amine (DIPEA) to adjust the pH to 12. A solution of Cy5.5 dyes (1.0 mg in 20 μL of DMSO) was added at room temperature for conjugation and the mixture was periodically vortexed over 2 hours.
# In some experiments, the RADA-4 solution was prepared with water as the solvent, for example: to a solution of RADA-4 (1.8 mg of H2N(RADA)4CONH2 (SEQ ID NO: 433) in 500 μL of Milli-Q water), 1 μL of Diisopropyl ethylene amine (DIPEA) was added to obtain pH 8 from 4. To prepare a working Cy5.5 stock, 165 μL of Milli-Q water was added to 165 μL Cy5.5 to make a 6.59×10^−7 M solution. The final conjugate was prepared by mixing equal volumes (165 μL) of the buffered (pH 8) (RADA)4 solution and Cy5.5 solution at room temperature for 2 hours.
# Eye drops were applied to both eyes of rats. The experimental group of rats were administered 2 μL of Cy5.5-(RADA)4 conjugate via drops, while control rats were administered Cy5.5 only via drops. The experiments were repeated using Cy5.5 conjugated to RADA (Cy5.5(RADA)COOH; SEQ ID NO: 442) and Cy5.5 conjugated to (RADA)2 (Cy5.5(RADA)2COOH; SEQ ID NO: 444).
# The rats were sacrificed 24 hours or 3 days post treatment. The eye balls of the rats were harvested and were then fixed in 4% paraformaldehyde (PFA) overnight. Excessive PFA was washed with 0.1M phosphate buffer (0.1MPB) 3 times (30 minutes each). The eyeballs were then dehydrated with 30% sucrose solution (30 g sucrose in 100 mL of 0.1 MPB) overnight, while replenishing the sucrose solution once for at least 6 hours. As necessary, the shape of the eyeballs was reformed with O.C.T. (Optimal Cutting Temperature compound; TISSUE-TEK® O.C.T.; CA) by injecting through the optic nerve. Each eye was embedded entirely in a mount with O.C.T. in liquid nitrogen to form frozen blocks. Blocks containing the eye samples were then sectioned at 20 microns and were placed on charged slides and allowed to dry. The slides were then rinsed to remove excess OCT and cover-slipped. The fate of the Cy5.5-RADA conjugate was investigated by tracing the color of the Cy5.5 in the eye. Visualization was performed with light microscopy and photographs were taken with a SPOT camera affixed to the Zeiss microscope.
# [2] = tested on: activated retinal microglial cells; assay: Lipopolysaccharide ocular inflammation model, 1 μl LPS alone or with SAP intravitreally, sacrifice after 24 hours (Example 2); format: in vivo, Sprague-Dawley rats
# Protocol: Adult white Sprague-Dawley rats with a weight of between 200 and 240 grams were housed in a 12 hours light/12 hours night cycle with free access to food and water. The animals were randomly divided into a study or control groups.
# Intravitreal injections, immunohistochemical staining and assessment of intraocular inflammation were generally performed as described in Example 1.
# 1 μl sterile lipopolysaccharide (LPS; from S. typhimurium; catalog no. L-7261; Sigma-Aldrich, St. Louis, Mo.) either alone or in combination with (RADA)2 (SEQ ID NO: 88) solutions at 0.1%, 1.0%, and 10.0% were administered via direct intravitreal injections. The animals were sacrificed 24 hours after treatment. The experiments were repeated at least 5 times.
# In some experiments, different SAP, including S2 (H2N(EARA)COOH; SEQ ID NO: 92), S3 (H2N(RARA)CONH2; SEQ ID NO: 413), and S5 (H2N(EARA)2CONH2; SEQ ID NO: 414), were evaluated as described above for (RADA)2 (SEQ ID NO: 88).
# Finally, a conjugate of an EARA based SAP and a tissue-specific motif (MSCRAMM; SEQ ID NO: 141) was also evaluated using this lipopolysaccharide ocular inflammation model. Experiments were performed as described above for (RADA)2 (SEQ ID NO: 88). Briefly, 1 μl sterile lipopolysaccharide (LPS; from S. typhimurium; catalog no. L-7261; Sigma-Aldrich, St. Louis, Mo.) either alone or in combination with MSCRAMM(EARA)4 (SEQ ID NO: 432) solutions at 1.0%, and 3.0% were administered via direct intravitreal injections. The animals were sacrificed 24 hours after treatment. The experiments were repeated three times for each SAP conjugate concentration (that is, n=3 for 1%; n=3 for 3%).
# [3] = tested on: activated retinal microglial cells; assay: Lipopolysaccharide ocular inflammation model, intravitreal co-injection, quantification of activated retinal microglial cells (Example 1); format: in vivo, Sprague-Dawley rats; design: TOTAL AREA WEIGHT (total retinal area weight-averaged density; amount of inflammation) / JEB #: unit not given here; conditions: for JEB # / TOTAL AREA WEIGHT (total retinal area weight-averaged density; amount of inflammation): 0.5% RADA + LPS intravitreal
# Protocol: The anti-inflammatory effect of SAP was examined using the lipopolysaccharide ocular inflammation model, and measurement of microglial cell activation was assessed as an indicator of inflammation. Morphological changes in macrophage cells, such as microglial cells, can be used as a marker of the presence and extent of inflammation. Methods for identifying and scoring variations in microglial cell morphology in response to inflammatory stimuli are described in the art (see, for example, Jonas, et al., PLoS ONE 7(2): e30763 (2012)).
# Adult white Sprague-Dawley rats weighing between 200 and 240 grams were housed in a 12 hour light/12 hour night cycle with free access to food and water. The animals were randomly divided into study or control groups.
# Animals were anesthetized by an intraperitoneal injection of xylazine 2% (5 mg/kg body weight) and ketamine 10% (100 mg/kg body weight). Topical anesthesia was additionally provided by repeated administration of proparacaine (0.5%) drops onto the cornea. A thorough disinfection of the ocular surface, the lid margins and the periocular skin was carried out with iodine 5% solution.
# Using a glass pipette pulled to the size of a 30 gauge needle and attached to a syringe, 2 μl of sterile, pyrogen-free saline containing lipopolysaccharides from Salmonella typhimurium (catalog no. L-7261; Sigma-Aldrich, St. Louis, Mo.) was intravitreally injected.
# For the primary experiment, the study included 40 Sprague-Dawley rats. All intravitreal injection volumes were of 2 μl, to reduce the effects of increased ocular pressure. All intravitreal injections of lipopolysaccharides (LPS) volumes were 4 μg at a concentration of 2 μg/μL.
# The control groups (n=20) received either an intravitreal saline injection (n=5), lipopolysaccharide (LPS) alone ([…]), or no injection as a normal control group (n=5). Animals in the SAP study group (n=15) also received the self-assembling peptide (amino acid sequence RADARADARADARADA; “RADA-16”) in concentrations of 0.5% of SAP/2 μL.
# At one, three and seven days after the injections, the animals were sacrificed, and the globes were immunohistochemically stained and histomorphometrically examined. The contralateral eye from the LPS group was also examined.
# The eyes were embedded with Optimal Cutting Temperature compound (Tissue-Tek® O.C.T., Ted Pella, Inc. Redding, Calif.) after the lenses were removed. The globes were sectioned and placed on subbed slides. After being washed in 0.01M phosphate buffered saline for 10 minutes, the sections (15 μm) were immersed in a blocking solution containing 0.3% triton, 2.5% bovine serum albumin (BSA; Proliant Co, Ankeny, Iowa, USA) and 2% goat serum for 30 minutes. The sections were incubated in a primary antibody diluted solution overnight at 4° C., containing rabbit anti-IBA1 (Ionized calcium Binding Adaptor molecule 1; 1:500; Wako Pure Chemical Industries, Ltd. Osaka, Japan) and mouse anti rat CD 68 (ED1) (1:1000; AbD Serotech, D-40470 Dusseldorf, Germany). The sections were then washed in 0.01M phosphate buffered saline (10 minutes, 3 times), and incubated with secondary antibody diluted solution at room temperature for 2 hours (Goat-anti-rabbit 568, Goat-anti-mouse Alexa 488, (Invitrogen, Carlsbad, Calif., 1:400)). The slides were then washed in 0.01M phosphate buffered saline (10 minutes, 3 times) and cover slipped with fluorescein mounting medium with DAPI (4′,6-diamidin-2′-phenylindol-dihydrochloride; Dako Ltd, Glostrup, Denmark). All images were taken under a 20× objective with a Carl Zeiss Flour microscope (Carl Zeiss Inc. Oberkochen, Germany) fitted with a spot camera. All illumination levels were fixed during image acquisition.
# The amount of intraocular inflammation was assessed by quantification of immunohistochemically labeled activated retinal microglial cells, which function as the immune mediators of the central nervous system. […]
# [4] = 1.0% and 3.0% solutions with LPS, 24 hours
substance,measurement,setting,value
Cy5.5 [reference compound],pink coloration (Cy5.5) in the retina,[1],no pink coloration was observed in any part of the retina or optic nerve head
same,transport across the cornea / localization,[1],not transported across the cornea
Cy5.5(RADA)2COOH ({Cy5.5}-RADARADA-OH) [Cy5.5 conjugated to RADARADA],localization,[1],localize to the retina
Cy5.5(RADA)4CONH2,localization,[1],localize to the retina
same,pink coloration (Cy5.5) in the retina,[1],pink coloration was observed throughout the outer retina
same,transport across the cornea / localization,[1],localize within the retina
Cy5.5(RADA)COOH ({Cy5.5}-RADA-OH) [Cy5.5 conjugated to RADA],localization,[1],localize to the retina
H2N(EARA)2CONH2 (H-EARAEARA-NH2) [SAP S5],signs of retinal inflammation compared to control,"[2]; along with LPS, FIG. 5",marked reduction
H2N(EARA)COOH (H-EARA-OH) [SAP S2],signs of retinal inflammation compared to control,"[2]; along with LPS, FIG. 5",marked reduction
H2N(RARA)CONH2 (H-RARA-NH2) [SAP S3],LPS induced inflammation,"[2]; along with LPS, FIG. 5",reduced LPS induced inflammation to normal levels
same,signs of retinal inflammation compared to control,"[2]; along with LPS, FIG. 5",marked reduction
MSCRAMM(EARA)4 (MSCRAMMEARAEARAEARAEARA) [conjugate of an EARA based SAP and a tissue-specific motif (MSCRAMM],ED1 reactivity,[2]; [4],no evidence of ED1 reactivity
same,activation of microglia (JEB score),[2]; [4],≤ 4
same,inflammation in treated animals,[2]; [4],no inflammation
same,signs of retinal inflammation compared to control (LPS only),[2]; [4],reduction
RADARADA [(RADA)2],signs of retinal inflammation compared to control (LPS alone),"[2]; all concentrations (0.1%, 1.0%, 10.0%), 24 hours, FIG. 4",marked reduction
same,density of activated retinal microglial cells compared to controls (LPS alone),"[2]; combination injection with LPS, 24 hours",significantly lower
RADARADARADARADA,JEB #,[3]; Day 1,11.63
same,TOTAL AREA WEIGHT (total retinal area weight-averaged density; amount of inflammation),[3]; Day 1,74.99
same,TOTAL AREA WEIGHT (total retinal area weight-averaged density; amount of inflammation),"[3]; Day 1, listed as SAP",75.0±26.6
same,JEB #,[3]; Day 3,8.502
same,TOTAL AREA WEIGHT (total retinal area weight-averaged density; amount of inflammation),[3]; Day 3,55.91
same,TOTAL AREA WEIGHT (total retinal area weight-averaged density; amount of inflammation),"[3]; Day 3, listed as SAP",55.9±45.9
same,JEB #,[3]; Day 7,9.158
same,TOTAL AREA WEIGHT (total retinal area weight-averaged density; amount of inflammation),[3]; Day 7,52.66
same,TOTAL AREA WEIGHT (total retinal area weight-averaged density; amount of inflammation),"[3]; Day 7, listed as SAP",52.7±47.7
same,amount of inflammation compared to normal or saline injected controls,[3]; 0.5% SAP + LPS,no significant difference
same,level of inflammation compared to LPS-only control group,[3]; 0.5% SAP + LPS,significantly (P<0.001) lower
same,density of activated retinal microglial cells compared to LPS controls,[3]; SAP + LPS vs LPS-only,significantly lower
same,signs of retinal inflammation,[3]; intraocular SAP along with LPS,marked reduction
